Read-outs that look alike come from different tables or passages of the source.
Legend:
Type in all cases: cell-based
[1] = test system: S. epidermidis; experiment: Shaking biofilm model (200 rpm), safranine staining; conditions: Staphylococcus epidermidis, S. epidermidis, read-out: Shaking biofilm model % Remaining
Method: (§1) According to the static biofilm model, a given thiophenone 200 μmol/L was dissolved in 500 μl absolute ethanol and applied to wells of a standard 24 well microtiter plate. The ethanol was evaporated from the wells in a laminar air sterile work bench at room temperature so as to leave a coating of the thiophenone in the well. A sample of bacteria was then added to the well and incubated for a given period of time. After incubation, the percentage of bacteria remaining was assessed by safranine staining of the biofilm. Bound safranine was released by acetic acid and optical density was measured in Synergy HT Multi-Detection Microplate Reader and compared to a control.
(§2) According to the shaking biofilm model, the microtiter plates were shaken (200 rpm) in a Minitron Incubator Shaker during biofilm formation.

[2] = test system: V. harveyi; experiment: as above
Method: as §1, §2

[3] = test system: Vibrio harveyi BB886 (AI-1 reporter); experiment: Bioluminescence assay of AI-1 quorum-sensing; conditions: compared with the corresponding furanone compound
Method: (§3) The effect of (Z)-5-(bromomethylene) thiophen-2(5H)-one on AI-1 and AI-2 quorum-sensing by bacteria was tested in a bioluminescence assay as follows:
(§4) Inhibition of quorum sensing was assessed as the ability of the furanone to reduce bioluminescence induced by cell free bacterial culture supernatant containing either AI-1 or AI-2 signal molecules. Vibrio harveyi BB886 was used as an AI-1 reporter and Vibrio harveyi BB170 was used as reporter of AI-2 communication.

[4] = test system: E. faecalis; experiment: Static biofilm model, safranine staining; conditions: 4 h incubation
Method: as §1

[5] = test system: Pseudoalteromonas; experiment: Static biofilm model, safranine staining; conditions: 4 h incubation
Method: as §1

[6] = test system: S. epidermidis; experiment: Static biofilm model, safranine staining; conditions: 6 h incubation, thiophenone 200 μmol/L coating
Method: as §1

[7] = test system: V. harveyi; experiment: Static biofilm model, safranine staining; conditions: 4 h incubation
Method: as §1

[8] = test system: Vibrio harveyi BB170 (AI-2 reporter); experiment: Bioluminescence assay of AI-2 quorum-sensing; conditions: compared with the corresponding furanone compound
Method: as §3, §4

O=C1C=C/C(=C/Br)S1 [Thio101, (Z)-5-(bromomethylene) thiophen-2(5H)-one]
activity at 200 µM ([1]; 6 h incubation): 13% | activity at 200 µM ([1]; 20 h incubation): 15% | Shaking biofilm model % Remaining ([2]; 8 h incubation): 54% | Shaking biofilm model % Remaining ([2]; 18 h incubation): 56% | Inhibition of AI-1 quorum-sensing [3]: considerably more effective | Static biofilm model % Remaining ([4]; coating): 66% | Static biofilm model % Remaining ([4]; in medium): 32% | Static biofilm model % Remaining ([5]; coating): 52% | Static biofilm model % Remaining ([5]; in medium): 36% | Static biofilm model % Remaining [6]: 28% | Static biofilm model % Remaining ([7]; coating): 20% | Static biofilm model % Remaining ([7]; in medium): 9% | Inhibition of AI-2 quorum-sensing [8]: considerably more effective
